Assay: molar heat capacity at constant volume
Details: Liquid, Vacuum adiabatic calorimetry

FCF [difluoromethane]
Details | molar heat capacity at constant volume [J/K/mol]
268.15 K, 8268 kPa | 49.47
268.15 K, 8502 kPa | 48.8
269.15 K, 9280 kPa | 49.32
269.15 K, 9512 kPa | 49.68
270.15 K, 10291 kPa | 49.47
270.15 K, 10521 kPa | 49.84
271.15 K, 11302 kPa | 49.42
271.15 K, 11531 kPa | 49.53
272.15 K, 12312 kPa | 49.94
272.15 K, 12421 kPa | 50.57
272.15 K, 12540 kPa | 49.06
273.15 K, 13321 kPa | 49.06
273.15 K, 13429 kPa | 49.79
273.15 K, 13551 kPa | 50.25
274.15 K, 14330 kPa | 49.94
274.15 K, 14438 kPa | 49.63
274.15 K, 14560 kPa | 49.37
275.15 K, 15337 kPa | 49.47
275.15 K, 15444 kPa | 49.84
275.15 K, 15568 kPa | 49.47
276.15 K, 16344 kPa | 49.89
276.15 K, 16452 kPa | 49.84
276.15 K, 16577 kPa | 49.73
277.15 K, 17350 kPa | 49.32
277.15 K, 17457 kPa | 49.63
277.15 K, 17583 kPa | 49.99
278.15 K, 18354 kPa | 49.89
278.15 K, 18462 kPa | 50.25
278.15 K, 18589 kPa | 49.47
279.15 K, 19358 kPa | 49.89
279.15 K, 19465 kPa | 49.79
279.15 K, 19595 kPa | 50.15
280.15 K, 20361 kPa | 49.63
280.15 K, 20468 kPa | 50.2
280.15 K, 20598 kPa | 49.99
281.15 K, 21363 kPa | 50.46
281.15 K, 21470 kPa | 49.63
281.15 K, 21601 kPa | 49.89
282.15 K, 22363 kPa | 49.58
282.15 K, 22472 kPa | 50.25
282.15 K, 22602 kPa | 50.05
283.15 K, 23363 kPa | 50.41
283.15 K, 23473 kPa | 50.15
283.15 K, 23603 kPa | 49.94
284.15 K, 24362 kPa | 50.31
284.15 K, 24472 kPa | 49.94
284.15 K, 24606 kPa | 50.25
285.15 K, 25359 kPa | 50.15
285.15 K, 25470 kPa | 50.51
285.15 K, 25603 kPa | 50.25
286.15 K, 26356 kPa | 50.51
286.15 K, 26466 kPa | 50.62
286.15 K, 26598 kPa | 50.2
287.15 K, 27351 kPa | 50.36
287.15 K, 27461 kPa | 50.2
287.15 K, 27594 kPa | 50.36
288.15 K, 28345 kPa | 50.57
288.15 K, 28454 kPa | 50.62
288.15 K, 28588 kPa | 50.41
289.15 K, 5774 kPa | 51.24
289.15 K, 5835 kPa | 49.79
289.15 K, 29338 kPa | 50.46
289.15 K, 29446 kPa | 50.72
289.15 K, 29581 kPa | 51.09
290.15 K, 6570 kPa | 50.62
290.15 K, 6631 kPa | 50.93
291.15 K, 7365 kPa | 51.14
291.15 K, 7428 kPa | 51.19
292.15 K, 8161 kPa | 51.24
292.15 K, 8224 kPa | 51.14
293.15 K, 8956 kPa | 51.4
293.15 K, 9019 kPa | 51.71
294.15 K, 9752 kPa | 51.66
294.15 K, 9815 kPa | 50.83
295.15 K, 10546 kPa | 51.19
295.15 K, 10610 kPa | 51.56
296.15 K, 11341 kPa | 51.19
296.15 K, 11405 kPa | 51.5
297.15 K, 12135 kPa | 51.61
297.15 K, 12199 kPa | 51.35
298.15 K, 12929 kPa | 51.5
298.15 K, 12993 kPa | 51.92
299.15 K, 13723 kPa | 51.66
299.15 K, 13787 kPa | 51.82
300.15 K, 14517 kPa | 51.66
300.15 K, 14581 kPa | 52.08
301.15 K, 15309 kPa | 52.34
301.15 K, 15374 kPa | 51.92
302.15 K, 16102 kPa | 52.08
302.15 K, 16167 kPa | 52.23
303.15 K, 16894 kPa | 52.13
303.15 K, 16960 kPa | 52.49
304.15 K, 17685 kPa | 52.13
304.15 K, 17752 kPa | 52.54
305.15 K, 18476 kPa | 52.75
305.15 K, 18543 kPa | 52.6
306.15 K, 19267 kPa | 52.75
306.15 K, 19335 kPa | 52.8
307.15 K, 20125 kPa | 52.49
308.15 K, 20848 kPa | 52.91
308.15 K, 20915 kPa | 52.8
309.15 K, 21639 kPa | 52.7
309.15 K, 21704 kPa | 53.32
310.15 K, 22429 kPa | 52.86
310.15 K, 22492 kPa | 53.12
311.15 K, 23217 kPa | 53.17
311.15 K, 23281 kPa | 53.69
312.15 K, 24005 kPa | 53.64
312.15 K, 24068 kPa | 53.79
313.15 K, 24793 kPa | 53.53
313.15 K, 24855 kPa | 53.79
314.15 K, 25579 kPa | 53.79
314.15 K, 25641 kPa | 53.43
315.15 K, 26364 kPa | 53.58
315.15 K, 26427 kPa | 54
316.15 K, 27149 kPa | 53.53
316.15 K, 27212 kPa | 54.68
317.15 K, 27934 kPa | 54.42
317.15 K, 27996 kPa | 54.21
318.15 K, 28719 kPa | 54.1
318.15 K, 28779 kPa | 54.78
